# Results: article PMC3883354 (Bioorganic & medicinal chemistry, 2013)
# Target: T1, human GVIA iPLA2 (Homo sapiens, UniProt O60733)
# T1 sequence (O60733 1-806): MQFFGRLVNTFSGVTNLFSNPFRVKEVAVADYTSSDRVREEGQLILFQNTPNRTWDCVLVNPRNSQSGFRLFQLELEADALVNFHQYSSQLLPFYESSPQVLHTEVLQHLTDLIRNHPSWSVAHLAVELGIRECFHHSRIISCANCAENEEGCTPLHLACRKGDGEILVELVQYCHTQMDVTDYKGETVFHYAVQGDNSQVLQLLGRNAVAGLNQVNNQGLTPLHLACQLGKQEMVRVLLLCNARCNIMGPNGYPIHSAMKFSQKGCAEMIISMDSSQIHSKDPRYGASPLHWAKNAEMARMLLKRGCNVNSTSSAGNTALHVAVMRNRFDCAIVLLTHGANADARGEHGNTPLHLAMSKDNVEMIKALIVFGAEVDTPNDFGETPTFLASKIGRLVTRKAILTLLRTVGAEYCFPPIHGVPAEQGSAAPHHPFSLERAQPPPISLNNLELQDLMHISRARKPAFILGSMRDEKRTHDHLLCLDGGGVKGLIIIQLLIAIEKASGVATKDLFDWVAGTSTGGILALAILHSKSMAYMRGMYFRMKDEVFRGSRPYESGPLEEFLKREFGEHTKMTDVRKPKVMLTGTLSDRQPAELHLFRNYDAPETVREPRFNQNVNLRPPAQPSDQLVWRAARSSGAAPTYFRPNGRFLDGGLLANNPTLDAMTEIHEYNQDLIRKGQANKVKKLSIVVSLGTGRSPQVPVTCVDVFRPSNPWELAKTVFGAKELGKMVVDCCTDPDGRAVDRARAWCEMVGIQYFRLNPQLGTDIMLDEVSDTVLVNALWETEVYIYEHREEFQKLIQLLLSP
# Assay: mixed micelle-based modified Dole assay, GVIA iPLA2 inhibition
# Assay type: biochemical
# Details: for fold weaker towards iPLA2 than FKGK11: compared with FKGK11
SMILES,times weaker inhibitor towards GVIA iPLA2 than FKGK18 (compared with FKGK18) [times],fold weaker towards iPLA2 than FKGK11
"O=C(CCCCc1cccc2ccccc12)C(F)(F)F [5a, 1,1,1-Trifluoro-6-(naphthalen-1-yl)hexan-2-one]",9,
"O=C(CCCCc1ccc(-c2ccccc2)cc1)C(F)(F)F [5e, 6-(Biphenyl-4-yl)-1,1,1-trifluorohexan-2-one]",,13 fold
"O=C(CCCCc1ccc(-c2ccccc2)cc1)C(F)(F)C(F)(F)F [6e, 7-(Biphenyl-4-yl)-1,1,1,2,2-pentafluoroheptan-3-one]",,ninefold weaker
